{"source": "the OligoGym collection", "note": "Values joined by “and” are separate entries in the source; they are usually repeats but may differ in a detail not shown here. Equal entries are not always repeated. After the bases stand the sugars from the 5' end (letter, count) and the backbone: PS all phosphorothioate, else s phosphorothioate and o phosphodiester by linkage. HELM strings list units from the 5' end as sugar, base in round brackets, then linkage (d deoxyribose, r ribose, m 2'-O-methyl, p phosphodiester). Methylation of C is not given here. [moe] = 2'-O-(2-methoxyethyl) (MOE); [cEt] = constrained ethyl (cEt); [sp] = phosphorothioate linkage; e = 2'-O-(2-methoxyethyl) (MOE); k = constrained ethyl (cEt); d = 2'-deoxy (DNA)"}
{"molecular_target": "KRAS", "conditions": "ASO, A431, 0.037 µM", "units": {"target mRNA inhibition": "%"}}
{"substance": "AATGGTGAATATCTTC (sugars k3 d10 k3, PS)", "target mRNA inhibition": 58}
{"molecular_target": "KRAS", "conditions": "ASO, A431, 2 µM", "units": {"target mRNA inhibition": "%"}}
{"substance": "AAAAAAAAATTAATGT (sugars k3 d10 k3, PS)", "target mRNA inhibition": 16}
{"substance": "AAAAAAATTAATGTCT (sugars k3 d10 k3, PS)", "target mRNA inhibition": 7}
{"substance": "AAAAGTGTTTATGCAA (sugars k3 d10 k3, PS)", "target mRNA inhibition": 32}
{"substance": "AAAGTGTTTATGCAAT (sugars k3 d10 k3, PS)", "target mRNA inhibition": 29}
{"substance": "AAATTAATGTCTTGGC (sugars k3 d10 k3, PS)", "target mRNA inhibition": 47}
{"substance": "AACAAATGCTAATAAT (sugars k3 d10 k3, PS)", "target mRNA inhibition": 0}
{"substance": "AACCAGTGTTAAGAGA (sugars k3 d10 k3, PS)", "target mRNA inhibition": 35}
{"substance": "AATAATCCCCATTTCA (sugars k3 d10 k3, PS)", "target mRNA inhibition": 16}
{"substance": "AATGGTGAATATCTTC (sugars k3 d10 k3, PS)", "target mRNA inhibition": 50}
{"substance": "ACAAATGCTAATAATT (sugars k3 d10 k3, PS)", "target mRNA inhibition": 1}
{"substance": "ACCAGTGTTAAGAGAA (sugars kdddddddddkekeke, PS)", "target mRNA inhibition": 50}
{"substance": "ACCAGTGTTAAGAGAA (sugars kkkdddddddddkeke, PS)", "target mRNA inhibition": 40}
{"substance": "ACCAGTGTTAAGAGAA (sugars kkkddddddddkekek, PS)", "target mRNA inhibition": 51}
{"substance": "ACCATTCAAAGTTCAC (sugars kkdddddddddkekek, PS)", "target mRNA inhibition": 36}
{"substance": "ACCATTCAAAGTTCAC (sugars kkkddddddddkdkdk, PS)", "target mRNA inhibition": 12}
{"substance": "ACTTGAAAAGTGTTTA (sugars k3 d10 k3, PS)", "target mRNA inhibition": 16}
{"substance": "ACTTGTACTAGTATGC (sugars k3 d10 k3, PS)", "target mRNA inhibition": 51}
{"substance": "AGATTGTGCTGAGCTT (sugars kkdddddddddkekek, PS)", "target mRNA inhibition": 38}
{"substance": "AGATTGTGCTGAGCTT (sugars kkddddddddkekekk, PS)", "target mRNA inhibition": 0}
{"substance": "AGATTGTGCTGAGCTT (sugars kkkdddddddddkeke, PS)", "target mRNA inhibition": 43}
{"substance": "AGATTGTGCTGAGCTT (sugars kkkddddddddkekek, PS)", "target mRNA inhibition": 26}
{"substance": "AGCTATTAGGAGTCTT (sugars k3 d10 k3, PS)", "target mRNA inhibition": 35}
{"substance": "AGGAGTCTTTATAGTA (sugars k3 d9 k3 e1, PS)", "target mRNA inhibition": 6}
{"substance": "AGGAGTCTTTATAGTA (sugars kdddddddddkekeke, PS)", "target mRNA inhibition": 24}
{"substance": "AGGAGTCTTTATAGTA (sugars kkkdddddddddkeke, PS)", "target mRNA inhibition": 31}
{"substance": "AGGCAAGATGACACTA (sugars k3 d10 k3, PS)", "target mRNA inhibition": 21}
{"substance": "AGGCATTGCTAGTTCA (sugars k3 d10 k3, PS)", "target mRNA inhibition": 55}
{"substance": "AGTGTGACTCAGTTAA (sugars k3 d10 k3, PS)", "target mRNA inhibition": 53}
{"substance": "AGTGTGACTCAGTTAA (sugars kkdddddddddkekek, PS)", "target mRNA inhibition": 48}
{"substance": "ATCTTGTTGAGCTATC (sugars k3 d10 k3, PS)", "target mRNA inhibition": 40}
{"molecular_target": "KRAS", "conditions": "ASO, A431, 5 µM"}
{"substance": "AATGGTGAATATCTTC (sugars k3 d10 k3, PS)", "target mRNA inhibition": "97% and 90%"}
{"substance": "AGTCTATTTCAGGCGG (sugars k3 d10 k3, PS)", "target mRNA inhibition": "50%"}
{"molecular_target": "KRAS", "conditions": "ASO, NCI-H460, 0.037 µM", "units": {"target mRNA inhibition": "%"}}
{"substance": "AATGGTGAATATCTTC (sugars k3 d10 k3, PS)", "target mRNA inhibition": 33.3}
{"molecular_target": "HBV", "conditions": "ASO, HepG2, 0.07 µM"}
{"substance": "RNA1{[moe](T)[sp].[moe](A)[sp].[moe](T)[sp].[moe](G)[sp].[moe](C)[sp].d(C)[sp].d(T)[sp].d(A)[sp].d(C)[sp].d(A)[sp].d(G)[sp].d(C)[sp].d(C)[sp].d(T)[sp].[moe](C)[sp].[moe](C)}$$$$V2.0", "target mRNA inhibition": "47% and 42%"}
{"substance": "RNA1{[moe](T)[sp].[moe](C)[sp].[moe](C)[sp].d(G)[sp].d(C)[sp].d(A)[sp].d(G)[sp].d(T)[sp].d(A)[sp].d(T)[sp].d(G)[sp].d(G)[sp].[moe](A)[sp].[moe](T)[sp].[moe](C)[sp].[moe](G)}$$$$V2.0", "target mRNA inhibition": "65% and 72%"}
{"substance": "RNA1{[moe](T)[sp].[moe](G)[sp].[moe](A)[sp].[moe](A)[sp].[moe](G)[sp].d(C)[sp].d(G)[sp].d(A)[sp].d(A)[sp].d(G)[sp].d(T)[sp].d(G)[sp].d(C)[sp].d(A)[sp].[moe](C)[sp].[moe](A)[sp].[moe](C)}$$$$V2.0", "target mRNA inhibition": "13% and 38%"}
{"substance": "RNA1{[moe](T)[sp].[moe](G)[sp].[moe](A)[sp].[moe](G)[sp].[moe](G)[sp].d(C)[sp].d(A)[sp].d(T)[sp].d(A)[sp].d(G)[sp].d(C)[sp].d(A)[sp].d(G)[sp].d(C)[sp].[moe](A)[sp].[moe](G)[sp].[moe](G)}$$$$V2.0", "target mRNA inhibition": "45% and 44%"}
{"substance": "RNA1{[moe](T)[sp].[moe](G)[sp].[moe](A)[sp].d(A)[sp].d(G)[sp].d(C)[sp].d(G)[sp].d(A)[sp].d(A)[sp].d(G)[sp].d(T)[sp].d(G)[sp].[moe](C)[sp].[moe](A)[sp].[moe](C)[sp].[moe](A)[sp].[moe](C)}$$$$V2.0", "target mRNA inhibition": "74% and 60%"}
{"substance": "RNA1{[moe](T)[sp].[moe](G)[sp].[moe](A)[sp].d(G)[sp].d(G)[sp].d(C)[sp].d(A)[sp].d(T)[sp].d(A)[sp].d(G)[sp].d(C)[sp].d(A)[sp].[moe](G)[sp].[moe](C)[sp].[moe](A)[sp].[moe](G)}$$$$V2.0", "target mRNA inhibition": "60% and 49%"}
{"substance": "RNA1{[moe](T)[sp].[moe](G)[sp].[moe](C)[sp].[moe](A)[sp].[moe](G)[sp].[moe](A)[sp].d(G)[sp].d(G)[sp].d(T)[sp].d(G)[sp].d(A)[sp].d(A)[sp].d(G)[sp].d(C)[sp].d(G)[sp].[moe](A)[sp].[moe](A)}$$$$V2.0", "target mRNA inhibition": "74% and 63%"}
{"substance": "RNA1{[moe](T)[sp].[moe](G)[sp].[moe](C)[sp].[moe](A)[sp].[moe](G)[sp].d(A)[sp].d(G)[sp].d(G)[sp].d(T)[sp].d(G)[sp].d(A)[sp].d(A)[sp].d(G)[sp].d(C)[sp].[moe](G)[sp].[moe](A)}$$$$V2.0", "target mRNA inhibition": "61% and 52%"}
{"substance": "RNA1{[moe](T)[sp].[moe](G)[sp].d(A)[sp].d(A)[sp].d(G)[sp].d(C)[sp].d(G)[sp].d(A)[sp].d(A)[sp].d(G)[sp].d(T)[sp].[moe](G)[sp].[moe](C)[sp].[moe](A)[sp].[moe](C)[sp].[moe](A)}$$$$V2.0", "target mRNA inhibition": "69% and 54%"}
{"substance": "RNA1{[moe](T)[sp].[moe](G)[sp].d(C)[sp].d(A)[sp].d(G)[sp].d(A)[sp].d(G)[sp].d(G)[sp].d(T)[sp].d(G)[sp].d(A)[sp].[moe](A)[sp].[moe](G)[sp].[moe](C)[sp].[moe](G)[sp].[moe](A)}$$$$V2.0", "target mRNA inhibition": "46% and 36%"}
{"substance": "RNA1{[moe](T)[sp].[moe](G)[sp].d(G)[sp].d(A)[sp].d(G)[sp].d(C)[sp].d(C)[sp].d(A)[sp].d(C)[sp].d(C)[sp].d(A)[sp].[moe](G)[sp].[moe](C)[sp].[moe](A)[sp].[moe](G)[sp].[moe](G)}$$$$V2.0", "target mRNA inhibition": "29% and 41%"}
{"substance": "RNA1{[moe](T)[sp].[moe](T)[sp].[moe](A)[sp].[moe](T)[sp].[moe](G)[sp].d(C)[sp].d(C)[sp].d(T)[sp].d(A)[sp].d(C)[sp].d(A)[sp].d(G)[sp].d(C)[sp].d(C)[sp].[moe](T)[sp].[moe](C)}$$$$V2.0", "target mRNA inhibition": "53% and 42%"}
{"substance": "RNA1{[moe](T)[sp].[moe](T)[sp].[moe](A)[sp].d(T)[sp].d(G)[sp].d(C)[sp].d(C)[sp].d(T)[sp].d(A)[sp].d(C)[sp].d(A)[sp].d(G)[sp].[moe](C)[sp].[moe](C)[sp].[moe](T)[sp].[moe](C)[sp].[moe](C)}$$$$V2.0", "target mRNA inhibition": "61% and 54%"}
{"substance": "RNA1{[moe](T)[sp].[moe](T)[sp].[moe](A)[sp].d(T)[sp].d(G)[sp].d(C)[sp].d(C)[sp].d(T)[sp].d(A)[sp].d(C)[sp].d(A)[sp].d(G)[sp].d(C)[sp].[cEt](C)[sp].[cEt](T)[sp].[cEt](C)}$$$$V2.0", "target mRNA inhibition": "37% and 53%"}
{"substance": "RNA1{[moe](T)[sp].[moe](T)[sp].[moe](C)[sp].[moe](C)[sp].[moe](G)[sp].d(C)[sp].d(A)[sp].d(G)[sp].d(T)[sp].d(A)[sp].d(T)[sp].d(G)[sp].d(G)[sp].d(A)[sp].[moe](T)[sp].[moe](C)[sp].[moe](G)}$$$$V2.0", "target mRNA inhibition": "65% and 59%"}
{"substance": "RNA1{[moe](T)[sp].[moe](T)[sp].[moe](C)[sp].[moe](C)[sp].d(G)[sp].d(C)[sp].d(A)[sp].d(G)[sp].d(T)[sp].d(A)[sp].d(T)[sp].d(G)[sp].d(G)[sp].[moe](A)[sp].[moe](T)[sp].[moe](C)}$$$$V2.0", "target mRNA inhibition": "43% and 49%"}
{"substance": "RNA1{[moe](T)[sp].[moe](T)[sp].[moe](C)[sp].d(C)[sp].d(G)[sp].d(C)[sp].d(A)[sp].d(G)[sp].d(T)[sp].d(A)[sp].d(T)[sp].d(G)[sp].[moe](G)[sp].[moe](A)[sp].[moe](T)[sp].[moe](C)}$$$$V2.0", "target mRNA inhibition": "53% and 50%"}
{"substance": "RNA1{[moe](T)[sp].[moe](T)[sp].[moe](C)[sp].d(C)[sp].d(G)[sp].d(C)[sp].d(A)[sp].d(G)[sp].d(T)[sp].d(A)[sp].d(T)[sp].d(G)[sp].d(G)[sp].[cEt](A)[sp].[cEt](T)[sp].[cEt](C)}$$$$V2.0", "target mRNA inhibition": "60% and 68%"}
{"substance": "RNA1{[moe](T)[sp].[moe](T)[sp].[moe](T)[sp].[moe](A)[sp].d(T)[sp].d(G)[sp].d(C)[sp].d(C)[sp].d(T)[sp].d(A)[sp].d(C)[sp].d(A)[sp].d(G)[sp].[moe](C)[sp].[moe](C)[sp].[moe](T)}$$$$V2.0", "target mRNA inhibition": "51% and 38%"}
{"substance": "RNA1{[moe](T)[sp].[moe](T)[sp].[moe](T)[sp].d(A)[sp].d(T)[sp].d(G)[sp].d(C)[sp].d(C)[sp].d(T)[sp].d(A)[sp].d(C)[sp].d(A)[sp].[moe](G)[sp].[moe](C)[sp].[moe](C)[sp].[moe](T)[sp].[moe](C)}$$$$V2.0", "target mRNA inhibition": "62% and 49%"}
{"substance": "RNA1{[moe](T)[sp].[moe](T)[sp].d(A)[sp].d(T)[sp].d(G)[sp].d(C)[sp].d(C)[sp].d(T)[sp].d(A)[sp].d(C)[sp].d(A)[sp].[moe](G)[sp].[moe](C)[sp].[moe](C)[sp].[moe](T)[sp].[moe](C)[sp].[moe](C)}$$$$V2.0", "target mRNA inhibition": "56% and 57%"}
{"substance": "RNA1{[moe](T)[sp].[moe](T)[sp].d(A)[sp].d(T)[sp].d(G)[sp].d(C)[sp].d(C)[sp].d(T)[sp].d(A)[sp].d(C)[sp].d(A)[sp].[moe](G)[sp].[moe](C)[sp].[moe](C)[sp].[moe](T)[sp].[moe](C)}$$$$V2.0", "target mRNA inhibition": "44% and 46%"}
{"substance": "RNA1{[moe](T)[sp].[moe](T)[sp].d(C)[sp].d(C)[sp].d(G)[sp].d(C)[sp].d(A)[sp].d(G)[sp].d(T)[sp].d(A)[sp].d(T)[sp].[moe](G)[sp].[moe](G)[sp].[moe](A)[sp].[moe](T)[sp].[moe](C)[sp].[moe](G)}$$$$V2.0", "target mRNA inhibition": "67% and 72%"}
